Values of other authors as cited in patent US8481087B2, “Withania somnifera plant extract and method of preparation thereof” (National Brain Research Centre, priority 2008, dated 2013).

Tested on: severely damaged neurons
Conditions: severely damaged neurons in vitro

CC1=C(C)C(=O)O[C@@H]([C@](C)(O)[C@H]2CC[C@H]3[C@@H]4[C@@H]5O[C@@H]5[C@@]5(O)CC=CC(=O)[C@]5(C)[C@H]4CC[C@]23C)C1 [Withanolide-A]
neurite regeneration and synapse reconstruction: regenerate neurites and reconstruct synapses
